According to ChEMBL document CHEMBL1201862, “PubChem BioAssay data set” (2004):
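These data come from cells grown in 96-well plates and exposed to compound for 48 hours at five concentrations. Here, GI50 denotes the concentration required for 50% inhibition of growth.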 Activity calls are given as the source filed them. No stated cut-off is given here; in the data, active = GI50 up to about 1.1 µM and inactive = higher.

Key:
Test in all cases: NCI tumour cell line growth inhibition, 48 h
786-0 = system: 786-0
ACHN = system: ACHN
CCRF-CEM = system: CCRF-CEM
COLO 205 = system: COLO 205
EKVX = system: EKVX
HL-60 = system: HL-60
HOP-62 = system: HOP-62
HOP-92 = system: HOP-92
HT-29 = system: HT-29
IGROV-1 = system: IGROV-1
KM12 = system: KM12
Malme-3M = system: Malme-3M
NCI-H522 = system: NCI-H522
NCI/ADR-RES = system: NCI/ADR-RES
OVCAR-8 = system: OVCAR-8
SK-MEL-2 = system: SK-MEL-2
SK-MEL-5 = system: SK-MEL-5
SNB-75 = system: SNB-75
T47D = system: T47D
U-251 = system: U-251

Measured: GI50

O=C(Nc1cccc(Cl)c1)Nn1cnnc1
inactive: 786-0 > 100 µM | ACHN > 100 µM | CCRF-CEM > 100 µM | COLO 205 > 100 µM | EKVX > 100 µM | HL-60 66.5 µM | HOP-62 > 100 µM | HOP-92 > 100 µM | HT-29 > 100 µM | IGROV-1 > 100 µM | KM12 > 100 µM | Malme-3M > 100 µM | NCI-H522 > 100 µM | NCI/ADR-RES > 100 µM | OVCAR-8 > 100 µM | SK-MEL-2 > 100 µM | SK-MEL-5 > 100 µM | SNB-75 > 100 µM | T47D > 100 µM | U-251 > 100 µM

Cc1c(-c2nc(N)nc(C3CC3)c2C)nc(N)nc1C1CC1
inactive: 786-0 > 100 µM | ACHN > 100 µM | CCRF-CEM > 100 µM | COLO 205 > 100 µM | EKVX > 100 µM | HL-60 > 100 µM | HOP-62 > 100 µM | HOP-92 > 100 µM | HT-29 > 100 µM | IGROV-1 > 100 µM | KM12 > 100 µM | Malme-3M > 100 µM | NCI-H522 > 100 µM | NCI/ADR-RES > 100 µM | OVCAR-8 > 100 µM | SK-MEL-2 > 100 µM | SK-MEL-5 > 100 µM | SNB-75 > 100 µM | T47D > 100 µM | U-251 > 100 µM

O=c1[nH]ncc2[nH]c3c(c12)CCc1ccccc1-3
inactive: 786-0 36.1 µM | ACHN 32.1 µM | CCRF-CEM 31.5 µM | COLO 205 13.2 µM | EKVX 2.22 µM | HL-60 24.7 µM | HOP-62 45.9 µM | HOP-92 30.9 µM | HT-29 29.9 µM | IGROV-1 14.7 µM | KM12 28.2 µM | Malme-3M 32.9 µM | NCI-H522 21.5 µM | NCI/ADR-RES 40.4 µM | OVCAR-8 33.6 µM | SK-MEL-2 23 µM | SK-MEL-5 11 µM | SNB-75 13 µM | T47D 25.2 µM | U-251 31.6 µM

COc1ccc(SCc2cc(OC)ccc2OC)cc1
inactive: 786-0 > 85.5 µM | ACHN 97.3 µM | CCRF-CEM 17.5 µM | COLO 205 15.6 µM | EKVX > 56.1 µM | HL-60 6.01 µM | HOP-62 59.8 µM | HOP-92 13.5 µM | HT-29 13.7 µM | IGROV-1 15.9 µM | KM12 4.23 µM | Malme-3M 55.6 µM | NCI-H522 18.8 µM | NCI/ADR-RES 13.2 µM | OVCAR-8 96.4 µM | SK-MEL-2 8.59 µM | SK-MEL-5 16.1 µM | SNB-75 11.1 µM | T47D 25.5 µM | U-251 11.2 µM

CC(=O)OC[C@@]1(C)[C@@H]2[C@@H]3[C@@]4(CO[C@]3(C)C(=O)[C@@]3(O)C[C@H](C)[C@H](OC(C)=O)[C@@H]3[C@H]4OC(C)=O)[C@H](OC(=O)c3ccccc3)C[C@@H]21
inactive: 786-0 > 100 µM | ACHN > 100 µM | CCRF-CEM > 100 µM | COLO 205 > 100 µM | EKVX > 100 µM | HL-60 > 100 µM | HOP-62 > 100 µM | HOP-92 > 100 µM | HT-29 > 100 µM | IGROV-1 > 100 µM | KM12 > 100 µM | Malme-3M > 100 µM | NCI-H522 > 100 µM | NCI/ADR-RES > 100 µM | OVCAR-8 > 100 µM | SK-MEL-2 > 100 µM | SK-MEL-5 > 100 µM | SNB-75 > 100 µM | T47D > 100 µM | U-251 > 100 µM

N/C(=N\N=C\c1nc2ccccc2o1)c1cnccn1
inactive: 786-0 66.7 µM | ACHN 70.8 µM | CCRF-CEM > 100 µM | COLO 205 > 100 µM | EKVX > 100 µM | HL-60 49.9 µM | HOP-62 43.2 µM | HOP-92 > 100 µM | HT-29 > 100 µM | IGROV-1 > 100 µM | KM12 > 100 µM | Malme-3M 1.71 µM | NCI-H522 > 100 µM | NCI/ADR-RES > 100 µM | OVCAR-8 > 100 µM | SK-MEL-2 80.7 µM | SK-MEL-5 > 100 µM | SNB-75 16.4 µM | T47D 51.4 µM | U-251 35.6 µM

CC(=O)c1c2c(cc3c1CC1(Cc4cc5c(cc4C1)CCC5)C3)CCC2
inactive: 786-0 > 100 µM | ACHN > 100 µM | CCRF-CEM > 100 µM | EKVX > 100 µM | HL-60 > 100 µM | HOP-62 > 100 µM | HOP-92 > 100 µM | HT-29 78.2 µM | IGROV-1 > 100 µM | Malme-3M > 100 µM | NCI-H522 > 100 µM | NCI/ADR-RES > 100 µM | OVCAR-8 > 100 µM | SK-MEL-2 > 100 µM | SK-MEL-5 > 100 µM | SNB-75 > 100 µM | T47D > 100 µM | U-251 > 100 µM

COC(=O)CC1C(COC(C)=O)OC(n2cc(C)c(=O)[nH]c2=O)C1OC(C)=O (stereo not given)
inactive: 786-0 > 100 µM | ACHN > 100 µM | CCRF-CEM > 100 µM | COLO 205 > 100 µM | EKVX > 100 µM | HL-60 > 100 µM | HOP-62 > 100 µM | HOP-92 > 100 µM | HT-29 > 100 µM | IGROV-1 > 100 µM | KM12 > 100 µM | Malme-3M > 100 µM | NCI-H522 > 100 µM | NCI/ADR-RES > 100 µM | OVCAR-8 > 100 µM | SK-MEL-2 > 100 µM | SK-MEL-5 > 100 µM | SNB-75 > 100 µM | T47D > 100 µM | U-251 > 100 µM

O=[N+]([O-])c1ccc2nc(O)n[n+]([O-])c2c1
inactive: 786-0 > 100 µM | ACHN > 100 µM | CCRF-CEM > 100 µM | COLO 205 > 100 µM | EKVX > 100 µM | HL-60 > 100 µM | HOP-62 > 100 µM | HOP-92 > 100 µM | HT-29 > 100 µM | IGROV-1 > 100 µM | KM12 > 100 µM | Malme-3M > 100 µM | NCI-H522 > 100 µM | NCI/ADR-RES > 100 µM | OVCAR-8 > 100 µM | SK-MEL-2 > 100 µM | SK-MEL-5 > 100 µM | SNB-75 > 100 µM | T47D > 100 µM | U-251 > 100 µM

COc1ccc(/C=C/c2cnnc3ccccc23)cc1OC
inactive: 786-0 > 10 µM | ACHN > 10 µM | CCRF-CEM > 10 µM | COLO 205 > 10 µM | EKVX > 10 µM | HL-60 > 10 µM | HOP-62 > 10 µM | HOP-92 3.7 µM | HT-29 > 10 µM | IGROV-1 > 10 µM | KM12 > 10 µM | Malme-3M > 10 µM | NCI-H522 > 10 µM | NCI/ADR-RES > 10 µM | OVCAR-8 > 10 µM | SK-MEL-2 > 10 µM | SK-MEL-5 > 10 µM | SNB-75 5.46 µM | T47D > 10 µM | U-251 > 10 µM

CC1C=C(NCC2(CO)CCC2)N=C(N)N1 (stereo not given)
inactive: 786-0 > 100 µM | ACHN > 100 µM | CCRF-CEM > 100 µM | COLO 205 > 100 µM | EKVX > 100 µM | HL-60 > 100 µM | HOP-62 > 100 µM | HOP-92 > 100 µM | HT-29 > 100 µM | IGROV-1 > 100 µM | KM12 > 100 µM | Malme-3M > 100 µM | NCI-H522 > 100 µM | NCI/ADR-RES > 100 µM | OVCAR-8 > 100 µM | SK-MEL-2 > 100 µM | SK-MEL-5 > 100 µM | SNB-75 > 100 µM | T47D > 100 µM | U-251 > 100 µM

C[N+](C)(C)CCC(=O)N1C/C(=C\c2ccccc2)C(=O)/C(=C/c2ccccc2)C1
inactive: 786-0 2.38 µM | ACHN 6.3 µM | CCRF-CEM 1.64 µM | COLO 205 3.47 µM | EKVX 21.4 µM | HL-60 2.27 µM | HOP-62 18.1 µM | HOP-92 20.6 µM | HT-29 2.79 µM | IGROV-1 5.12 µM | KM12 1.6 µM | Malme-3M 15.4 µM | NCI-H522 2.25 µM | NCI/ADR-RES 1.64 µM | OVCAR-8 3.52 µM | SK-MEL-2 15.8 µM | SK-MEL-5 9.95 µM | SNB-75 7.83 µM | T47D 2.09 µM | U-251 3.03 µM

Cc1n[nH]c(=O)n1/N=C/c1ccc([N+](=O)[O-])cc1
inactive: 786-0 > 100 µM | ACHN > 100 µM | CCRF-CEM > 100 µM | COLO 205 > 100 µM | EKVX 60.7 µM | HL-60 > 100 µM | HOP-62 > 100 µM | HOP-92 55.3 µM | HT-29 > 100 µM | KM12 > 100 µM | Malme-3M > 100 µM | NCI-H522 > 100 µM | NCI/ADR-RES > 100 µM | OVCAR-8 > 100 µM | SK-MEL-2 > 100 µM | SK-MEL-5 > 100 µM | SNB-75 41.1 µM | T47D > 100 µM | U-251 > 100 µM

O=c1[nH]cc(F)c(=O)[nH]1 [FLUOROURACIL]
inactive: 786-0 11.9 µM | ACHN 9.62 µM | CCRF-CEM 35.2 µM | EKVX 299 µM | HL-60 20.9 µM | HOP-62 21.8 µM | HOP-92 162 µM | IGROV-1 14.3 µM | KM12 9.51 µM | Malme-3M 22.5 µM | NCI-H522 37 µM | NCI/ADR-RES 41.3 µM | OVCAR-8 20.2 µM | SK-MEL-2 372 µM | SK-MEL-5 11.6 µM | SNB-75 181 µM | T47D 75.5 µM | U-251 44.3 µM
